# Data published in patent US20080242870A1 (priority 2006, published 2008).
# “And” between values parts separate entries of the source, which are not always exact repeats. Identical values can stand only once. Like-named read-outs stand apart in the source and are kept apart here.
# How the values were obtained:
# [1] = Sodium sensing: quantum yield vs sodium perchlorate concentration; details: in acetonitrile
# Protocol: The benzo 15-crown-5 anthracene diimide derivative was synthesized because crown ethers are known for their ability to bind with metals. […] The extinction coefficient, ∈, was determined to be 16,000 M^−1 cm^−1 and the quantum yield, Φ, 0.02 (both were measured in acetonitrile). The emission spectrum for this compound was more complicated than the others. An excimer effect was evident in higher concentration samples and was more prominent in non-polar solvents. The excimer complicated the lifetime in toluene with a short component for the excited dimer state.
# [2] = not given; remark: listed apart in the source
# [3] = depending on the solvent
# Protocol: (§2) Luminescence lifetimes were measured with an IBH time-correlated single photon counting (TCSPC) system equipped with an IBH Model TBX-04 Photon Detection Module. The excitation source for the TCSPC measurements was a pulsed LED (IBH NanoLED, 455 nm, 1.3 ns pulse duration or 403 nm, <200 ps pulse duration) with a repetition rate of 1 MHz. All data was analyzed by iterative reconvolution of the decay profile (10,000 counts at the peak channel) with the instrument response function using software provided by the instrument manufacturer.
# [4] = Fluorescence lifetime by TCSPC (Example 5); assay type: physicochemical; details: room temperature, CH2Cl2
# Protocol: as §2
# [5] = Emission spectrum and quantum yield of perylene diimide (Example 5); assay type: physicochemical
# [6] = Absorption spectrum of perylene diimide (Example 5); assay type: physicochemical; details: CH2Cl2
# Solubility = details: polar organic solvents
# [7] = Stokes shift / Lippert-Mataga solvatochromic analysis; assay type: physicochemical; details: second (lower energy) emission component; R^2=0.99
# Description: The solvatochromic response of the anthracene diimides to photoexcitation was further characterized by analysis of the Stokes' shift and Lippert-Mataga polarity parameter,
# where v is the Stokes' shift in wavenumbers, h is Plank's constant, c is the speed of light, ∈0 is the permittivity of free space, Δμ is the change in the dipole moment upon excitation, α^3 is the molecule's volume, as is the solvent dielectric constant, and n is the solvent refractive index. This relationship quantifies the change in dipole between the ground state and excited state of a molecule and, when used with the calculated ground state dipole, the magnitude of the excited state dipole moment may be estimated. Each line represents a solvatochromic emission component of the corresponding diimide. All other bands were not solvatochromic and not included in the analysis. For example, the emission spectra of DPO (35) in the selection of solvents were nearly identical and could not be used in the Lippert-Mataga correlations. DP (37) had two components in the emission profiles; a higher energy band that quickly disappeared with increasing solvent polarity and a lower energy component that red-shifted with increasing solvent polarity.
# [8] = Emission spectra of anthracene diimides at room temperature (Example 1); assay type: physicochemical; details: (p) peak, (s) shoulder
# Protocol: (§1) Unless otherwise stated, all experiments used optically dilute solutions (Optical Density (OD)<0.2) at room temperature. […] Emission spectra were obtained with an Aminco-Bowman luminescence spectrometer (Series 2). The excitation was accomplished with a 150 W Xe lamp optically coupled to a monochrometer (+2 nm). The emission was collected at […] and passed through a second monochrometer (±2 nm). Luminescence was measured with a photomultiplier tube (PMT).
# [9] = Luminescence lifetime by TCSPC (Example 1); assay type: physicochemical; details: for 1τ: TCSPC 370 nm pulsed LED
# Protocol: as §2
# [10] = Radiative quantum yield against standards (Example 1); assay type: physicochemical
# Protocol: as §1
# [11] = Sub-ambient (77 K) emission in 2-methyltetrahydrofuran; assay type: physicochemical; details: 2-methyltetrahydrofuran, 405 nm excitation, listed as DP (37)
# Protocol: FIGS. 7a and 7b show normalized emission spectra for the diphenyl anthracene diimides (top) and the tetraphenyl anthracene diimides (bottom) at 77° K in 2-methyltetrahydrofuran and 405 nm excitation.
# In an attempt to better understand the excited state properties of the diphenyl and tetraphenyl anthracene diimides, sub-ambient (77 K) emission experiments were performed, with the results shown in FIGS. 7a and 7b. In the case of the diphenyl derivatives, DPO (35), DP (37), and DC (39) display similar emission spectra with overlapping bands near 434 nm, […], and 492 nm. Although the peak ratios differ slightly, the band shapes and positions are nearly identical. […] Similar results are observed for the tetraphenyl series. Here, TPO (40) and TP (41) display spectral features analogous to DPO (35), DP (37), and DC (39), but at lower energy.
# [12] = Absorption spectra of anthracene diimides in solvents of increasing polarity (Example 1); assay type: physicochemical
# [13] = Fluorescence quenching by 2,4-dinitrotoluene (Stern-Volmer); details: concentrated and dilute solutions in toluene
# [14] = cited from earlier work
compound,measurement,setting,value
"N,N′-Bis(benzo 15-crown-5)-1,5-bis(phenyl)anthracene-2,3,6,7-tetracarboxyl diimide","extinction coefficient, ∈",in acetonitrile,"16,000 M^−1 cm^−1"
same,sodium sensing,[1],effective sensor of sodium perchlorate
same,"quantum yield, Φ",[2]; in acetonitrile,0.02
"N,N′-Bis(m-(boronic acid)phenyl)-1,5-bis(phenyl)anthracene-2,3,6,7-tetracarboxyl diimide",lifetime (single exponential),[3],5-5.5 ns
"CCCCCCCCn1c(=O)c2c(-c3ccccc3)c3cccc4c3c(c3cccc5c(-c6ccccc6)c6c(=O)n(CCCCCCCC)c(=O)c6c4c53)c2c1=O [Compound 59, N,N′-Bis(octyl)-3,9-bis(phenyl)-perylene-1,2,7,8-tetracarboxyl diimide]",single exponential lifetime,[4],5.01 ns
same,quantum yield,[5]; measured against fluorescein,0.67
same,Stokes' shift,"[5]; room temperature, CH2Cl2",26 nm
same,fluorescence λmax,"[5]; room temperature, CH2Cl2, 425 nm excit.",517 nm
same,extinction coefficient,[6]; at absorption λmax,"29,000 M^−1 cm^−1"
same,absorption λmax,[6]; room temperature,~491 nm
same,solubility,Solubility,soluble in polar organic solvents
CCCCCCOc1ccc(-n2c(=O)c3cc4cc5c(-c6ccccc6)c6c(=O)n(-c7ccc(OCCCCCC)cc7)c(=O)c6cc5cc4c(-c4ccccc4)c3c2=O)cc1 [DP],slope of Lippert plot,[7],"6,600.2 cm^−1"
same,Em. λmax,[8]; Acetone (20.1),500(s) nm and 584(p) nm
same,Em. λmax,[8]; C2H4Cl2 (10.7),502(s) nm and 557(p) nm
same,Em. λmax,[8]; CHCl3 (4.8),536(p) nm and 501(p) nm
same,Em. λmax,[8]; Ethyl Acetate (6.02),500(s) nm and 555(p) nm
same,Em. λmax,[8]; THF (7.6),502(s) nm and 562(p) nm
same,Em. λmax,[8]; Toluene (2.4),497(p) nm and 525(p) nm
same,1τ,[9]; Acetone (20.1),<0.20 ns
same,1τ,[9]; C2H4Cl2 (10.7),<0.20 ns
same,1τ,[9]; CHCl3 (4.8),0.38 ns
same,1τ,[9]; Ethyl Acetate (6.02),<0.20 ns
same,1τ,[9]; THF (7.6),<0.20 ns
same,1τ,[9]; Toluene (2.4),0.62 ns
same,lifetime,[9]; in ethyl acetate and solvents of higher polarity,below 200 ps
same,lifetime,[9]; in toluene,620 ps
same,Φr,[10]; Acetone (20.1),0.0082
same,Φr,[10]; C2H4Cl2 (10.7),0.020
same,Φr,[10]; CHCl3 (4.8),0.028
same,Φr,[10]; Ethyl Acetate (6.02),0.015
same,Φr,[10]; THF (7.6),0.017
same,Φr,[10]; Toluene (2.4),0.066
same,Φr,"[10]; Toluene (2.4), listed as DP (37)",0.18
same,emission bands,[11],~434 nm and ~461 nm and ~492 nm
same,Abs. λmax,[12]; Acetone (20.1),423 nm
same,Abs. λmax,[12]; C2H4Cl2 (10.7),426 nm
same,Abs. λmax,[12]; CHCl3 (4.8),428 nm
same,Abs. λmax,[12]; Ethyl Acetate (6.02),421 nm
same,Abs. λmax,[12]; THF (7.6),422 nm
same,Abs. λmax,[12]; Toluene (2.4),422 nm
"N,N′-Bis(p-triphenyl amine)-1,5-bis(phenyl)anthracene-2,3,6,7-tetracarboxyl diimide","extinction coefficient, ∈",in toluene,"22,000 M^−1 cm^−1"
same,"2,4-dinitrotoluene sensing (quenching)",[13],"effective 2,4-dinitrotoluene (DNT) sensor"
same,"quantum yield, Φ",[2]; in toluene,0.09
"N,N′-Bis(p-(tert-butyl)phenyl)-1,5-bis(phenyl)anthracene-2,3,6,7-tetracarboxyl diimide","extinction coefficient, ∈",in toluene,"8,500 M^−1 cm^−1"
same,"quantum yield, Φ",[2]; in toluene,0.29
same,lifetime (single exponential),[3],around 5.5 ns
F[P-](F)(F)(F)(F)F.F[P-](F)(F)(F)(F)F.[Ru+2].c1ccc(-c2ccccn2)nc1.c1ccc(-c2ccccn2)nc1.c1ccc(-c2ccccn2)nc1 [[Ru(bpy)3](PF6)2],Φr of standard,[14]; in CH3CN,0.062
"N,N′-Bis(methyl 18-crown-6)-1,5-bis(phenyl)anthracene-2,3,6,7-tetracarboxyl diimide","extinction coefficient, ∈",in toluene,"12,500 M^−1 cm^−1"
same,"quantum yield, Φ",[2]; in toluene,0.37
same,lifetime (single exponential),[3],5.5-6.5 ns
c1ccc2cc3ccccc3cc2c1 [anthracene],Φr of standard,[14]; in EtOH,0.27
